Results taken from patent publication US20090264379A1, “Stable aqueous solution of a polyene fungicide” (DSM IP ASSETS B.V., priority 2003, published 2009).

Key:
[1] = Rest activity (stability) of completely dissolved natamycin in aqueous SDS solution over time, HPLC; format: physicochemical; details: 1000 ppm natamycin added, 1% SDS
Description: This method was used to analyze the amount of
active natamycin in a water-based mixture of several components. The method was HPLC based using the International Dairy Federation (Provisional ADF Standard 140, 1987) with a Lichrosorb RP 8 column. Detection was by UV at 303 nm with a range of 0.1-4 mg/L with an injection volume of 20 μl. Sample preparation was carried out by weighing 2 gram prepared formulation with an accuracy of 1 mgram in a measuring flask. 4 ml demineralized water (demiwater) was added and the mixture was stirred for 15 minutes to get a homogeneous suspension. Subsequently 80 ml ethanol was added and the mixture was stirred for 10 minutes. After ultrasonic treatment the solution was filled up to 100 ml with de-minaralized water and then diluted and/or filtered (0.2 μm) before injecting. The amount of active natamycin was calculated as ppm against a series of standards of known natamycin concentrations.
The mixtures were made by adding 2 gram Delvocid (Natamycin) together with 50 gram 20% SDS solution and eventually additives to a final weight of 1000 gram with demineralised (=demi) water.
This crude mixture was mixed for 5 minutes to obtain a homogeneous mixture and accordingly adjusted to pH 4-6 with ammonia.
The obtained formulations with an added amount of active natamycin of 1000 ppm were stored at 18° C. in a closed pot in the dark.
The prepared mixtures were measured over time for the amount of active natamycin using the analytical method as described hereinabove.
The mixture as described in Example 1 was adjusted to pH=4.0 or pH=6.0 and the natamycin activity was measured over time.
The mixture as described in Example 1 is combined with 1000 ppm di-sodium-EDTA, adjusted to pH 6.0 and the natamycin activity was measured over time.

[2] = Visual solubility of polyene fungicides in water and water + SDS; format: physicochemical; details: soluble if mixture is clear
Description: Mixtures are made with several polyene fungicides in several concentrations The used polyene fungicides are nystatin, amphotericin and natamycin. The solubility rate is measured visually of the polyene fungicides in demineralized water as such or according to example 1 in combination with SDS to a final SDS concentration of 1% (w/w). It is soluble if a mixture is clear after one minute stirring at room temperature.

SMILES: C[C@@H]1C/C=C/C=C/C=C/C=C/[C@H](O[C@@H]2O[C@H](C)[C@@H](O)[C@H](N)[C@@H]2O)C[C@@H]2O[C@](O)(C[C@@H](O)C[C@H]3O[C@@H]3/C=C/C(=O)O1)C[C@H](O)[C@H]2C(=O)O [Natamycin, natamycin]
- Rest activity of completely dissolved natamycin over time ([1]; pH = 4.0, 3 weeks, stored at 18° C. in the dark): <0.1 ppm
- Rest activity of completely dissolved natamycin over time ([1]; pH = 4.0, 9 weeks, stored at 18° C. in the dark): <0.1 ppm
- Rest activity of completely dissolved natamycin over time ([1]; pH = 4.0, 1 day, stored at 18° C. in the dark): 672 ppm
- Rest activity of completely dissolved natamycin over time ([1]; pH = 6.0 + Na2EDTA (1000 ppm di-sodium-EDTA), 3 weeks, 18° C. dark): 805 ppm
- Rest activity of completely dissolved natamycin over time ([1]; pH = 6.0 + Na2EDTA (1000 ppm di-sodium-EDTA), 9 weeks, 18° C. dark): 560 ppm
- Rest activity of completely dissolved natamycin over time ([1]; pH = 6.0 + Na2EDTA (1000 ppm di-sodium-EDTA), 1 day, 18° C. dark): 1000 ppm
- Rest activity of completely dissolved natamycin over time ([1]; pH = 6.0, 3 weeks, stored at 18° C. in the dark): 444 ppm
- Rest activity of completely dissolved natamycin over time ([1]; pH = 6.0, 9 weeks, stored at 18° C. in the dark): 57 ppm
- Rest activity of completely dissolved natamycin over time ([1]; pH = 6.0, 1 day, stored at 18° C. in the dark): 988 ppm

SMILES: C[C@@H]1[C@H](O)[C@@H](C)/C=C/C=C/CC/C=C/C=C/C=C/C=C/C(O[C@H]2O[C@H](C)[C@@H](O)[C@H](N)[C@@H]2O)CC2O[C@](O)(CC(O)C(O)CCC(O)CC(O)CC(O)CC(=O)O[C@H]1C)CC(O)C2C(=O)O (stereo partly shown) [Nystatin]
- Solublized after 1 minute stirring at room temperature ([2]; 250 ppm polyene fungicide in final mixture, solvent 1% (w/w) SDS): Yes
- Solublized after 1 minute stirring at room temperature ([2]; 250 ppm polyene fungicide in final mixture, solvent Demi-Water): No
- Solublized after 1 minute stirring at room temperature ([2]; 500 ppm polyene fungicide in final mixture, solvent 1% (w/w) SDS): Almost
- Solublized after 1 minute stirring at room temperature ([2]; 1000 ppm polyene fungicide in final mixture, solvent 1% (w/w) SDS): No
